System: acetyl transferase from Taxus baccata
Experiment: Enzymatic acetylation of substrates in the enzyme reactor (substrate specificity)
Assay type: biochemical
Conditions: used as in the example in place of 10-DAB; compared with 10-deacetyl baccatin III
Procedure: The synthesis in the enzyme reactor is carried out under the following conditions: The solvent used in the process is a 1:4 mixture of chloroform and heptane.

Molecule	acetylation as substrate of the acetyl transferase
CC(=O)O[C@@]12CO[C@@H]1C[C@H](O)[C@@]1(C)C(=O)[C@H](O)C3=C(C)[C@@H](OC(=O)[C@H](O)[C@@H](NC(=O)c4ccccc4)c4ccccc4)C[C@@](O)([C@@H](OC(=O)c4ccccc4)[C@H]21)C3(C)C [10-Deacetyl taxol]	significantly weaker as a substrate
CC(=O)O[C@H]1C(=O)[C@@]2(C)[C@H]([C@H](OC(=O)c3ccccc3)[C@]3(O)C[C@H](OC(=O)[C@H](O)[C@@H](NC(=O)c4ccccc4)c4ccccc4)C(C)=C1C3(C)C)[C@]1(OC(C)=O)CO[C@@H]1C[C@@H]2O [taxol]	not acetylated
baccatin III	not acetylated

— patent publication US6458568B1, “Method for the production of baccatin-III by enzymatic synthesis” (Institut fuer Bioanalytik, Umwelt-Toxikologie und …, priority 1998, dated 2002)
